In patent US20060046966A1, “Antipicornaviral compounds and compositions, their pharmaceutical uses, and materials for their synthesis” (Agouron Pharmaceuticals, Inc., priority 1998, published 2006):
pEC50: −log10 of the molar value. Where two headings read alike, the source gives them in different places.

What was measured:
HRV-14 = experiment: Antirhinoviral H1-HeLa cell culture assay, HRV-14; type: cell-based, human rhinovirus; details: Rhinovirus B, HRV14, H1-HeLa, HRV serotype-14, H1-HeLa cells
Method: (§1) In this cell protection assay, the ability of compounds to protect cells against HRV infection was measured by the XTT dye reduction method, which is described in Weislow et al., J. Natl. Cancer Inst. 1989, vol. 81, 577-586.
(§2) H1-HeLa cells were infected with HRV-14 at a multiplicity of infection (m.o.i.) of 0.13 (virus particles/cell) or mock-infected with medium only. Infected or mock-infected cells were resuspended at 8×10^5 cells per mL, and incubated with appropriate concentrations of the compounds to be tested. Two days later, XTT/PMS was added to test plates and the amount of formazan produced was quantified spectrophotometrically at 450/650 nm. The EC50 value was calculated as the concentration of compound that increased the percentage of formazan production in compound-treated, virus-infected cells to 50% of that produced by compound-free, mock-infected cells. The 50% cytotoxic dose (CC50) was calculated as the concentration of compound that decreased the percentage of formazan produced in compound-treated, mock-infected cells to 50% of that produced by compound-free, mock-infected cells. The therapeutic index (TI) was calculated by dividing the CC50 value by the EC50 value.
(§3) All strains of human rhinovirus (HRV) for use in this assay were purchased from American Type Culture Collection (ATCC), except for HRV serotype-14 (produced from the infectious cDNA clone constructed by Dr. Robert Rueckert, Institute for Molecular Virology, University of Wisconsin, Madison, Wis.). HRV stocks were propagated and viral assays were performed in H1-HeLa cells (ATCC). Cells were grown in minimal essential medium with 10% fetal bovine serum, available from Life Technologies (Gaithersburg, Md.).
(§4) The compounds were tested against control compounds WIN 51711, WIN 52084, and WIN 54954 (obtained from Sterling-Winthrop Pharmaceuticals), Pirodavir (obtained from Janssen Pharmaceuticals), and Pleconaril (prepared according to the method described in Diana et al., J. Med. Chem 1995, vol. 38, 1355). Antiviral data obtained for the test compounds are shown in Tables 1 and 3, where all data are for HRV serotype-14 unless otherwise noted in parentheses.

[1] = target: T1, rhinovirus 3C protease, serotype 2 (Human rhinovirus 2, UniProt P04936); experiment: Inhibition of rhinovirus 3C protease (FRET assay), serotype 2; type: biochemical; details: Rhinovirus Serotype (2) 3C protease; read-out: kobs/I
T1 construct: Recombinant rhinovirus 3C proteases; made in house
T1 sequence (P04936 1508-1690): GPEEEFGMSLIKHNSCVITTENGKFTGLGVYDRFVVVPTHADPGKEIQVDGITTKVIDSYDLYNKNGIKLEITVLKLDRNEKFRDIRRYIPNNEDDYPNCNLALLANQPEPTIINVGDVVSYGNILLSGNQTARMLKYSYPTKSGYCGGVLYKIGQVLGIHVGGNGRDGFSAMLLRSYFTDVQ
Method: (§5) Stock solutions (50 mM, in DMSO) of various compounds were prepared; dilutions were in the same solvent. Recombinant rhinovirus 3C proteases (see Birch et al., “Purification of recombinant human rhinovirus 14 3C protease expressed in Escherichia coli,” Protein Expr. Pur. 1995, 6(5), 609-618) from serotypes 14, 16, and 2 were prepared by the following standard chromatographic procedures: (1) ion exchange using Q Sepharose Fast Flow from Pharmacia; (2) affinity chromatography using Affi-Gel Blue from Biorad; and (3) sizing using Sephadex G-100 from Pharmacia. Each assay sample contained 2% DMSO, 50 mM tris pH 7.6, 1 mM EDTA, a test compound at the indicated concentration, approximately 1 μM substrate, and 50-100 nM protease. The kobs/I values were obtained from reactions initiated by addition of enzyme rather than substrate. RVP activity was measured in the fluorescence resonance energy transfer assay. The substrate was (N-terminal) DABCYL-(Gly-Arg-Ala-Val-Phe-Gln-Gly-Pro-Val-Gly)-EDANS. In the uncleaved peptide, the EDANS fluorescence was quenched by the proximal DABCYL moiety. When the peptide was cleaved, the quenching was relieved, and activity was measured as an increase in fluorescence signal. In Table 1, all data are for rhinovirus 3C protease from HRV serotype-14 (produced from the infectious cDNA clone constructed by Dr. Robert Rueckert, Institute for Molecular Virology, University of Wisconsin, Madison, Wis.). […] The data in the column designated kobs/[I] were measured from progress curves in enzyme start experiments.

HRV (89) = experiment: Antirhinoviral H1-HeLa cell culture assay, HRV serotype 89; type: cell-based, human rhinovirus; details: Human rhinovirus sp., H1-HeLa cells, XTT
Method: as §1, §2, §3, §4

[2] = target: T2, rhinovirus 3C protease, serotype 16 (Human rhinovirus 16, UniProt Q82122); experiment: Inhibition of rhinovirus 3C protease (FRET assay), serotype 16; type: biochemical; details: Rhinovirus Serotype (16) 3C protease; read-out: kobs/I
T2 construct: Recombinant rhinovirus 3C proteases; made in house
T2 sequence (Q82122 1511-1693): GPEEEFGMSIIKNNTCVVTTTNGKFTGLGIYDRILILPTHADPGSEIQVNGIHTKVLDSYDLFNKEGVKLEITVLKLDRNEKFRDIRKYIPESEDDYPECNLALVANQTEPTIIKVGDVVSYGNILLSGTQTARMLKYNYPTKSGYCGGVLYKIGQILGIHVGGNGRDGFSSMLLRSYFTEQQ
Method: Stock solutions (50 mM, in DMSO) of various compounds were prepared; dilutions were in the same solvent. Recombinant rhinovirus 3C proteases (see Birch et al., “Purification of recombinant human rhinovirus 14 3C protease expressed in Escherichia coli,” Protein Expr. Pur. 1995, 6(5), 609-618) from serotypes 14, 16, and 2 were prepared by the following standard chromatographic procedures: (1) ion exchange using Q Sepharose Fast Flow from Pharmacia; (2) affinity chromatography using Affi-Gel Blue from Biorad; and (3) sizing using Sephadex G-100 from Pharmacia. Each assay sample contained 2% DMSO, 50 mM tris pH 7.6, 1 mM EDTA, a test compound at the indicated concentration, approximately 1 μM substrate, and 50-100 nM protease. The kobs/I values were obtained from reactions initiated by addition of enzyme rather than substrate. RVP activity was measured in the fluorescence resonance energy transfer assay. The substrate was (N-terminal) DABCYL-(Gly-Arg-Ala-Val-Phe-Gln-Gly-Pro-Val-Gly)-EDANS. In the uncleaved peptide, the EDANS fluorescence was quenched by the proximal DABCYL moiety. When the peptide was cleaved, the quenching was relieved, and activity was measured as an increase in fluorescence signal. […] The data in the column designated kobs/[I] were measured from progress curves in enzyme start experiments.

[3] = target: T3, rhinovirus 3C protease from HRV serotype-14 (Human rhinovirus 14, UniProt P03303); experiment: Inhibition of rhinovirus 3C protease (FRET assay), serotype 14; type: biochemical; details: HRV serotype-14 3C protease; progress curves in enzyme start experiments; read-out: Protease Inhibition kobs/[I]
T3 construct: Recombinant rhinovirus 3C proteases; made in house
T3 sequence (P03303 1538-1719): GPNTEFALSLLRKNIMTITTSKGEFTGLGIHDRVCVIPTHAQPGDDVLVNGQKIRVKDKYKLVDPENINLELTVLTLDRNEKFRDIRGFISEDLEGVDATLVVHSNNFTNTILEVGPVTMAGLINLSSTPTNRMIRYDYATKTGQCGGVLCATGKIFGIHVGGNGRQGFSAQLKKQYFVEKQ
Method: as §5

HRV (10) = experiment: Antirhinoviral H1-HeLa cell culture assay, HRV serotype 10; type: cell-based, human rhinovirus; details: Human rhinovirus sp., H1-HeLa, H1-HeLa cells, XTT
Method: as §1, §2, §3, §4

HRV (16) = experiment: Antirhinoviral H1-HeLa cell culture assay, HRV serotype 16; type: cell-based; details: Human rhinovirus sp., H1-HeLa cells, XTT
Method: as §1, §2, §3
The compounds were tested against control compounds WIN 51711, WIN 52084, and WIN 54954 (obtained from Sterling-Winthrop Pharmaceuticals), Pirodavir (obtained from Janssen Pharmaceuticals), and Pleconaril (prepared according to the method described in Diana et al., J. Med. Chem 1995, vol. 38, 1355). […]

[4] = target: T4, rhinovirus 3C protease, serotype 89 (Human rhinovirus A serotype 89, UniProt P07210); experiment: Inhibition of rhinovirus 3C protease (FRET assay), serotype 89; type: biochemical; details: Rhinovirus Serotype (89) 3C protease; read-out: kobs/I
T4 construct: Recombinant rhinovirus 3C proteases
T4 sequence (P07210 1522-1704): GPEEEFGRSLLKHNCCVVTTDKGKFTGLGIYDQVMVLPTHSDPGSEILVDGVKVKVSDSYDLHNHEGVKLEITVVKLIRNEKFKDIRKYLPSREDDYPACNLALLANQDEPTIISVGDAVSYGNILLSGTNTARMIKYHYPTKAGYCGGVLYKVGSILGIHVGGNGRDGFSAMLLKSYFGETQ

[5] = Table 1, XTT dye reduction, read-out: Cell Protection EC50

| pEC50 (HRV-14; [5]) | pEC50 (HRV-14; Table 3, XTT, read-out: EC50) | kinact/KI [1] [M⁻¹ s⁻¹] | pEC50 (HRV (89)) | kinact/KI [2] [M⁻¹ s⁻¹] | kinact/KI [3] [M⁻¹ s⁻¹] | pEC50 (HRV (10)) | pEC50 (HRV (16)) | kinact/KI [4] [M⁻¹ s⁻¹] | melting point | SMILES |
| --- | --- | --- | --- | --- | --- | --- | --- | --- | --- | --- |
| 6.21 | 6.21 | 2000 | 5.20 | 6500 | 25000 | 6.22 | 5.64 | 3400 | – | CCOC(=O)/C=C/[C@H](CCC(N)=O)NC(=O)[C@H](Cc1ccccc1)NC(=O)[C@H](CC(C)C)NC(=O)OCc1ccccc1 [Comparison Compound #2, Ethyl-3-(Cbz-L-Leu-L-Phe-L-Gln)-E-Propenoate, reference compound] |
| 6.42 | 6.42 | 8000 | – | 16900 | 62500 | – | – | – | 240 °C (dec.) | CCOC(=O)/C=C/[C@H](CCC(N)=O)NC(=O)[C@H](Cc1ccccc1)NC(=O)[C@@H](NC(=O)OCc1ccccc1)C(C)C [Comparison Compound #3, Ethyl-3-(Cbz-L-Val-L-Phe-L-Gln)-E-Propenoate] |
